Source: the NIST ThermoML archive (doi:10.1021/je101146f)

Key:
[1] = Ring tensiometer
[2] = xn = mol fraction of the nth substance listed; details: Ring tensiometer

CC#N [acetonitrile]
[1]
Details | surface tension liquid-gas [mN/m]
293.15 K | 28.95
298.15 K | 28.37
303.13 K | 27.66
308.15 K | 27.03
313.15 K | 26.43

C1CCOC1 [tetrahydrofuran]
[1]
Details | surface tension liquid-gas [mN/m]
293.15 K | 27.31
298.15 K | 26.68
303.13 K | 26.04
308.15 K | 25.38

CCn1cc[n+](C)c1.O=S(=O)([N-]S(=O)(=O)C(F)(F)F)C(F)(F)F
[1]
Details | surface tension liquid-gas [mN/m]
293.15 K | 36.14
298.15 K | 35.9
303.13 K | 35.56
308.15 K | 35.35
313.15 K | 35.1

C1CCOC1 [tetrahydrofuran] + CCn1cc[n+](C)c1.O=S(=O)([N-]S(=O)(=O)C(F)(F)F)C(F)(F)F
[2], x2 = 0
Details | surface tension liquid-gas [mN/m]
293.15 K | 27.31
298.15 K | 26.68
303.13 K | 26.04
308.15 K | 25.38

CC#N [acetonitrile] + CCn1cc[n+](C)c1.O=S(=O)([N-]S(=O)(=O)C(F)(F)F)C(F)(F)F
[2], x2 = 0
Details | surface tension liquid-gas [mN/m]
293.15 K | 28.95
298.15 K | 28.37
303.13 K | 27.66
308.15 K | 27.03
313.15 K | 26.43

CCn1cc[n+](C)c1.O=S(=O)([N-]S(=O)(=O)C(F)(F)F)C(F)(F)F + CC#N
surface tension liquid-gas [mN/m], [2]
Details | x1 = 0.0533 | x1 = 0.1886 | x1 = 0.337 | x1 = 0.4724 | x1 = 0.652 | x1 = 0.8245 | x1 = 0.924 | x1 = 1
293.15 K | 30.48 | 32.72 | 34.02 | 34.77 | 35.38 | 35.83 | 35.98 | 36.14
298.15 K | 29.8 | 32.1 | 33.55 | 34.42 | 35.11 | 35.6 | 35.76 | 35.9
303.13 K | 29.26 | 31.63 | 33.15 | 33.99 | 34.8 | 35.29 | 35.5 | 35.56
308.15 K | 28.65 | 31.16 | 32.78 | 33.61 | 34.49 | 34.99 | 35.22 | 35.35
313.15 K | 28.04 | 30.69 | 32.36 | 33.28 | 34.2 | 34.75 | 35 | 35.1

CCn1cc[n+](C)c1.O=S(=O)([N-]S(=O)(=O)C(F)(F)F)C(F)(F)F + C1CCOC1
surface tension liquid-gas [mN/m], [2]
Details | x1 = 0.1037 | x1 = 0.2024 | x1 = 0.3255 | x1 = 0.3841 | x1 = 0.4425 | x1 = 0.5469 | x1 = 0.6863 | x1 = 0.7697 | x1 = 0.9177 | x1 = 1
293.15 K | 28.72 | 29.94 | 31.05 | 31.62 | 32.12 | 32.98 | 34.07 | 34.55 | 35.65 | 36.14
298.15 K | 28.1 | 29.42 | 30.62 | 31.18 | 31.76 | 32.63 | 33.81 | 34.38 | 35.46 | 35.9
303.13 K | 27.52 | 28.84 | 30.18 | 30.82 | 31.41 | 32.39 | 33.52 | 34.15 | 35.22 | 35.56
308.15 K | 26.88 | 28.33 | 29.84 | 30.52 | 31.07 | 32.08 | 33.26 | 33.92 | 34.98 | 35.35
